In US20180028493A1, “INHIBITORS OF INDUCED MMP-1 PRODUCTION” (THE TRUSTEES OF COLUMBIA UNIVERSITY IN THE CITY OF NEW YORK, priority 2015, published 2018):
Values joined by “and” are separate entries in the source; they are usually repeats but may differ in a detail not shown here. Equal entries are not always repeated.

Legend:
MMP-1 [1] = assay: MMP-1 expression in SAECs treated with CSE; assay type: cell-based
Protocol: FIG. 5. […] Data is presented as mean+standard error.
FIG. 8. […] SAEC treatment with 5% CSE, 10 nM Fluoxitine, 10 uM Fluoxitine, and combinations of 5% CSE and Fluoxitine. […] Data is presented as mean+standard error.
In the first experiment, SAE cells were treated with 5% CSE, 10 nM Fluoxitine, 10 uM Fluoxitine, and combinations of 5% CSE and Fluoxitine (FIG. 8). […] Data is presented as mean+standard error.

MMP-1 [2] = system: MMP-1
Text: FIG. 6. The expression of MMP-1 protein in BAL from smoke rabbits. […] SM-smoke without the duloxetine, SMD-smoke with duloxetine.
(§1) Rabbits were stratified into one of four groups (Unexposed, treated with vehicle, Smoke exposed, treated with vehicle, Unexposed, treated with Duloxetine and smoke exposed treated with Duloxetine. Animals are maintained on room air or smoke exposed for 16 weeks and then sacrificed. Lung lavage is taken, lungs are fixed and sectioned and protein homogenate from lungs frozen.

emphysema = system: emphysema
Protocol: FIG. 7A. […] Duloxetine was administered 3 mg/day given once a day.
FIG. 7B. Morphometric analysis of rabbit study groups. […] NS-non-smoke without the duloxetine, NS-D-non-smoke with duloxetine, SM-smoke without the duloxetine, SM-D-smoke with duloxetine.
as §1

TLR-4 receptor = assay: TLR4 expression in CSE treated SAE cells; assay type: cell-based; conditions: SAEC, 5% CSE, 10 uM
IRAK = assay: Western blot of IRAK phosphorylation in CSE treated SAE cells; assay type: cell-based
PRAS40, BAD and GSK-3b = assay: Protein array analysis of cells treated with CSE; assay type: cell-based; conditions: CSE with Fluoxetine pretreatment vs CSE
Protocol: FIG. 10. Protein Array Analysis of Cells Treated with CSE compared to Cells Treated with CSE combined with Fluoxetine. […] The lines representing these three transcription factors, along with ERK 1/2, are labeled. Additionally, the lines compressed at the bottom of the figure represent the following transcription factors that were also tested: PC, NC, Stat1, Stat2, Akt (Thr308), Akt (Ser473), AMPKa, S6 Ribosomal Protein, mTOR, HSP27, p70 S6 Kinase, p53, p38, SAPK/JNK, PARP and Caspase-3.

[3] = Fluoxetine quantification in lung by chromatography after oral gavage or inhalation; assay type: in vivo; conditions: mice; for Concentration in lung sample: peak at retention time 17.08, replicates and average
Text: FIG. 13A. […] Mice were sacrificed, lungs lyophilized and protein homogenate prepared for chromatographic analysis.
FIG. 14A. […] Mice were sacrificed, lungs lyophilized and protein homogenate prepared for chromatographic analysis.
Mice were sacrificed, lungs lyophilized and protein homogenate prepared for chromatographic analysis.

SMILES | MMP-1 expression (MMP-1 [1]; SAEC, 5% CSE, 10 uM Duloxetine, p<0.05) | MMP-1 expression (MMP-1 [1]; cell culture system, 10 nM) | MMP-1 expression by ELISA of lung homogenate (MMP-1 [2]; rabbit cigarette smoke model, 20 weeks of smoke, compound in the last four weeks) | Expression of MMP-1 protein in BAL (MMP-1 [2]; smoke exposed rabbits) | Mean linear intercept (morphometric analysis) (emphysema; SM vs NS, NS-D, SM-D groups, p=0.0495) | Development of emphysema (H&E of lungs) (emphysema; smoke exposed rabbits, 3 mg/day once a day) | MMP-1 induction by CSE (MMP-1 [1]; SAEC, 5% CSE, 10 nM and 10 uM Fluoxetine, p<0.05) | TLR-4 receptor expression (TLR-4 receptor) | Phosphorylation of IRAK (Western blot) (IRAK) | BAD (protein array) (PRAS40, BAD and GSK-3b) | GSK-3b (protein array) (PRAS40, BAD and GSK-3b) | PRAS40 (protein array) (PRAS40, BAD and GSK-3b) | Concentration in lung sample ([3]; inhalation 10 mg/kg) | Concentration in lung sample ([3]; inhalation 10 mg/kg, mean) | Levels of Fluoxetine within the lung, inhalation vs oral ([3]; 10 mg/kg) | Detection of Fluoxetine in the lung ([3]; 10 mg/kg oral gavage and 10 mg/kg inhaled) | Concentration in lung sample ([3]; oral gavage 10 mg/kg, 10 mg/kg) | Concentration in lung sample ([3]; oral gavage 10 mg/kg, 10 mg/kg, mean)
CNCC[C@H](Oc1cccc2ccccc12)c1cccs1 [Duloxetine, (+)-(S)—N-Methyl-3-(naphthalen-1-yloxy)-3-(thiophen-2-yl) propan-1-amine] | decreased MMP-1 expression | block the MMP-1 expression | block the MMP-1 expression | down regulated the expression of MMP-1 in BAL | SM group had statistically significant increased mean linear intercept | development of emphysema was blocked | – | – | – | – | – | – | – | – | – | – | – | –
CNCCC(Oc1ccc(C(F)(F)F)cc1)c1ccccc1 (stereo not drawn) [Fluoxetine] | – | – | – | – | – | – | MMP-1 induction was attenuated | down regulation of TLR-4 receptor expression | suppressed | return to baseline | return to baseline | return to baseline | 25.81 µM and 26.2 µM and 26.45 µM | 26.16 µM | Inhalation resulted in higher levels | detection of Fluoxetine in the lung of mice | 3.712 µM and 3.673 µM and 3.98 µM | 3.788 µM
